Like-named read-outs stand apart in the source and are kept apart here.
Target: T1, human APJ receptor (Homo sapiens, UniProt P35414)
T1 construct: expressed in transfected cells
T1 sequence (P35414 1-380): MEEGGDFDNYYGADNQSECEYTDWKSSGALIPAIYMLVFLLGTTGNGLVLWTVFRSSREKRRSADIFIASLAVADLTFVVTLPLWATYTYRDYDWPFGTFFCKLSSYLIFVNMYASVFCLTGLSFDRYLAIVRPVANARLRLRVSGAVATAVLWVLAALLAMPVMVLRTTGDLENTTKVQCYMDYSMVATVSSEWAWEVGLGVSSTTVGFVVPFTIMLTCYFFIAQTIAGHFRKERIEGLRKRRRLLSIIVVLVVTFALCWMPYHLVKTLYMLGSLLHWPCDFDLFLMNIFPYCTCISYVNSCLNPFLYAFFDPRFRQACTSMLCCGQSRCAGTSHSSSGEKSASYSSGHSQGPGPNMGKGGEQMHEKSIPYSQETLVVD
Experiment: Intracellular cAMP accumulation assay (APJ hcAMP, HTRF)
Format: cell-based
Procedure, shortened: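 Inhibition of 2 μM forskolin-driven cAMP ([…] present) measured by HTRF in 5,000 HEK293 cells/well stably expressing human APJ, 30 min, room temperature. EC50 came from a variable-slope sigmoidal fit; Ymax was relative to (Pyr1)apelin-13 set at 100%.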

[1] = Table 1, HEK293 cells stably expressing human APJ receptor, inhibition of forskolin-mediated cAMP production, read-out: APJ hcAMP EC50
[2] = human APJ, cAMP, potency range class, read-out: APJ cAMP Human EC50

Row | Compound | EC50 [1] | EC50 [2] | EC50 (Table 3, HEK293 cells stably expressing human APJ receptor, read-out: APJ cAMP Human EC50)
1 | CCCC(NC(=O)c1ccc(-c2c(Cl)cccc2-c2nc3ccccc3[nH]2)c(C(=O)O)c1)c1ccccn1 [Example 180, (S)-2′-(1H-1,3-benzodiazol-2-yl)-6′-chloro-4-{[1-(pyridin-2-yl)butyl]carbamoyl}-[1,1′-biphenyl]-2-carboxylic acid] | < 10 nM | < 10 nM | –
2 | CCC[C@H](NC(=O)c1ccc(-c2c(Cl)cccc2-c2nc3ccccc3[nH]2)c(C(=O)O)c1)c1ccc(Cl)cc1C(F)(F)F [Example 181, (S)-2′-(1H-1,3-benzodiazol-2-yl)-6′-chloro-4-({1-[4-chloro-2-(trifluoromethyl)phenyl]butyl}carbamoyl)-[1,1′-biphenyl]-2-carboxylic acid] | < 10 nM | < 10 nM | –
3 | CCC[C@H](NC(=O)c1ccc(-c2c(Cl)cccc2-c2nc3ccccc3[nH]2)c(C(=O)O)c1)c1ccc(Cl)cc1 [Example 187, (S)-2′-(1H-1,3-benzodiazol-2-yl)-6′-chloro-4-{[1-(4-chlorophenyl)butyl]carbamoyl}-[1,1′-biphenyl]-2-carboxylic acid] | < 10 nM | < 10 nM | –
4 | CCC[C@H](NC(=O)c1ccc(-c2c(Cl)cccc2-c2nc3ccccc3[nH]2)c(C(=O)O)c1)c1cccnc1 [Example 190, (S)-2′-(1H-1,3-benzodiazol-2-yl)-6′-chloro-4-{[1-(pyridin-3-yl)butyl]carbamoyl}[1,1′-biphenyl]-2-carboxylic acid] | 10 to 100 nM | 10 to 100 nM | –
5 | CCC[C@H](NC(=O)c1ccc(-c2c(Cl)cccc2-c2nc3ccccc3[nH]2)c(C(=O)O)c1)c1cccnc1 [Example 193, (S)-2′-(1H-1,3-benzodiazol-2-yl)-6′-chloro-4-{[1-(pyridin-3-yl)butyl]carbamoyl}-[1,1′-biphenyl]-2-carboxylic acid] | 10 to 100 nM | – | –
6 | CCCC(NC(=O)c1ccc(-c2c(Cl)cccc2-c2nc3ccccc3[nH]2)c(C(=O)O)c1)c1cncs1 [Example 194, (S)-2′-(1H-1,3-benzodiazol-2-yl)-6′-chloro-4-{[1-(1,3-thiazol-5-yl)butyl]carbamoyl}-[1,1′-biphenyl]-2-carboxylic acid] | 10 to 100 nM | 10 to 100 nM | –
7 | CCC[C@H](NC(=O)c1ccc(-c2c(Cl)cccc2-c2nc3cc(Cl)c(F)cc3[nH]2)c(C(=O)O)c1)C1CCCCCC1 [Example 202, (S)-2′-chloro-6′-(5-chloro-6-fluoro-1H-1,3-benzodiazol-2-yl)-4-[(1-cycloheptylbutyl)carbamoyl]-[1,1′-biphenyl]-2-carboxylic acid] | < 10 nM | < 10 nM | –
8 | CCCC(NC(=O)c1ccc(-c2cc(Cl)ccc2-c2nc3cc(C(C)(C)C)ccc3[nH]2)c(C(=O)OC)c1)c1ccccc1OC (centres unmarked) [Example 203, methyl 2′-(5-tert-butyl-1H-1,3-benzodiazol-2-yl)-5′-chloro-4-{[1-(2-methoxyphenyl)butyl]carbamoyl}-[1,1′-biphenyl]-2-carboxylate] | 10 to 100 nM | 10 to 100 nM | –
9 | COc1cc2nc(-c3cccc(Cl)c3-c3ccc(C(=O)NC(c4ccc(Cl)cc4)C4CC4)cc3C(=O)NS(C)(=O)=O)[nH]c2cc1F (centres unmarked) [Example 206, 2′-chloro-N4-[(4-chlorophenyl)(cyclopropyl)methyl]-6′-(6-fluoro-5-methoxy-1H-1,3-benzodiazol-2-yl)-N2-methanesulfonyl-[1,1′-biphenyl]-2,4-dicarboxamide] | 10 to 100 nM | 10 to 100 nM | –
10 | CCCC(NC(=O)c1ccc(-c2cc(Cl)ccc2-c2nc3ccccc3[nH]2)c(C(=O)O)c1)c1ccccc1OC (centres unmarked) [Example 207, 2′-(1H-1,3-benzodiazol-2-yl)-5′-chloro-4-{[1-(2-methoxyphenyl)butyl]carbamoyl}-[1,1′-biphenyl]-2-carboxylic acid] | < 10 nM | < 10 nM | –
11 | CCCC(NC(=O)c1ccc(-c2cc(Cl)ccc2-c2nc3ccccc3[nH]2)c(C(=O)O)c1)c1ccccc1OC (centres unmarked) [Example 208, 2′-(1H-1,3-benzodiazol-2-yl)-5′-chloro-4-{[1-(2-methoxyphenyl)butyl]carbamoyl}-[1,1′-biphenyl]-2-carboxylic acid] | < 10 nM | – | –
12 | O=C(NC(CC1CCOCC1)c1ccccc1)c1ccc(-c2cc(Cl)ccc2-c2nc3ccccc3[nH]2)c(C(=O)O)c1 (centres unmarked) [Example 216, 2′-(1H-1,3-benzodiazol-2-yl)-5′-chloro-4-{[2-(oxan-4-yl)-1-phenylethyl]carbamoyl}-[1,1′-biphenyl]-2-carboxylic acid] | 101 to 500 nM | 101 to 500 nM | –
13 | O=C(NC(CC1CCOCC1)c1ccccc1)c1ccc(-c2cc(Cl)ccc2-c2nc3ccccc3[nH]2)c(C(=O)O)c1 (centres unmarked) [Example 217, 2′-(1H-1,3-benzodiazol-2-yl)-5′-chloro-4-{[2-(oxan-4-yl)-1-phenylethyl]carbamoyl}-[1,1′-biphenyl]-2-carboxylic acid] | 101 to 500 nM | – | –
14 | CCCC(NC(=O)c1ccc(-c2cc(Cl)ccc2-c2nc3cc(OC)ccc3[nH]2)c(C(=O)O)c1)c1ccccc1OC (centres unmarked) [Example 218, 5′-chloro-2′-(5-methoxy-1H-1,3-benzodiazol-2-yl)-4-{[1-(2-methoxyphenyl)butyl]carbamoyl}-[1,1′-biphenyl]-2-carboxylic acid] | < 10 nM | < 10 nM | –
15 | O=C(N[C@H](c1ccc(F)cc1)C1CC1)c1ccc(-c2c(Cl)cccc2-c2nc3ccccc3[nH]2)c(C(=O)O)c1 [Example 219, (S)-2′-(1H-1,3-benzodiazol-2-yl)-6′-chloro-4-{[cyclopropyl(4-fluorophenyl)methyl]carbamoyl}-[1,1′-biphenyl]-2-carboxylic acid] | < 10 nM | < 10 nM | –
16 | CCCC(NC(=O)c1ccc(-c2c(Cl)cccc2-c2nc3ccccc3[nH]2)c(C(=O)O)c1)c1ccccc1OC [Example 225, (S)-2′-(1H-1,3-benzodiazol-2-yl)-6′-chloro-4-{[1-(2-methoxyphenyl)butyl]carbamoyl}-[1,1′-biphenyl]-2-carboxylic acid] | < 10 nM | < 10 nM | –
17 | O=C(N[C@@H](CCC(F)(F)F)c1ccccc1)c1ccc(-c2c(Cl)cccc2-c2nc3ccccc3[nH]2)c(C(=O)O)c1 [Example 226, (S)-2′-(1H-1,3-benzodiazol-2-yl)-6′-chloro-4-[(4,4,4-trifluoro-1-phenylbutyl)carbamoyl]-[1,1′-biphenyl]-2-carboxylic acid] | < 10 nM | < 10 nM | –
18 | COC[C@@H](NC(=O)c1ccc(-c2c(Cl)cccc2-c2nc3ccccc3[nH]2)c(C(=O)O)c1)C1CC1 [Example 230, (S)-2′-(1H-1,3-benzodiazol-2-yl)-6′-chloro-4-[(1-cyclopropyl-2-methoxyethyl)carbamoyl]-[1,1′-biphenyl]-2-carboxylic acid] | 101 to 500 nM | 101 to 500 nM | –
19 | COc1cc2nc(-c3cccc(Cl)c3-c3ccc(C(=O)N[C@H](c4ccc(F)cc4)C4CC4)cc3C(=O)O)[nH]c2cc1F [Example 232, (S)-2′-chloro-4-{[cyclopropyl(4-fluorophenyl)methyl]carbamoyl}-6′-(6-fluoro-5-methoxy-1H-1,3-benzodiazol-2-yl)-[1,1′-biphenyl]-2-carboxylic acid] | < 10 nM | < 10 nM | –
20 | CCCC(NC(=O)c1ccc(-c2cc(Cl)ccc2-c2nc3cc(C(C)(C)C)ccc3[nH]2)c(C(=O)O)c1)c1ccccc1OC (centres unmarked) [Example 241, 2′-(5-tert-butyl-1H-1,3-benzodiazol-2-yl)-5′-chloro-4-{[1-(2-methoxyphenyl)butyl]carbamoyl}-[1,1′-biphenyl]-2-carboxylic acid] | < 10 nM | < 10 nM | –
21 | (S)-2′-chloro-4-{[(1R)-1-cyclohexylbutyl]carbamoyl}-6′-(6-fluoro-5-methoxy-1H-1,3-benzodiazol-2-yl)-[1,1′-biphenyl]-2-carboxylic acid [Example 160] | < 10 nM | < 10 nM | –
22 | (S)-2′-chloro-6′-(5- chloro-6-methyl-1H- 1,3-benzodiazol-2- yl)-4-{[(1R)-1- phenylbutyl] carbamoyl}- [1,1′-biphenyl]-2- carboxylic acid [Example 91] | < 10 nM | – | < 10 nM
